Results taken from PMC3205184, “Competitive binding at a nicotinic receptor transmembrane site of two α7-selective positive allosteric modulators with differing effects on agonist-evoked desensitization” (Neuropharmacology, 2011).

Target: T1, α7 nicotinic acetylcholine receptor (α7 nAChR) (Rattus norvegicus, UniProt Q05941)
T1 construct: gene Chrna7
Experiment: two-electrode voltage clamp in Xenopus oocytes; potentiation of EC20 acetylcholine responses, with site-directed mutants
Format: cell-based

T1 sequence (Q05941 23-502): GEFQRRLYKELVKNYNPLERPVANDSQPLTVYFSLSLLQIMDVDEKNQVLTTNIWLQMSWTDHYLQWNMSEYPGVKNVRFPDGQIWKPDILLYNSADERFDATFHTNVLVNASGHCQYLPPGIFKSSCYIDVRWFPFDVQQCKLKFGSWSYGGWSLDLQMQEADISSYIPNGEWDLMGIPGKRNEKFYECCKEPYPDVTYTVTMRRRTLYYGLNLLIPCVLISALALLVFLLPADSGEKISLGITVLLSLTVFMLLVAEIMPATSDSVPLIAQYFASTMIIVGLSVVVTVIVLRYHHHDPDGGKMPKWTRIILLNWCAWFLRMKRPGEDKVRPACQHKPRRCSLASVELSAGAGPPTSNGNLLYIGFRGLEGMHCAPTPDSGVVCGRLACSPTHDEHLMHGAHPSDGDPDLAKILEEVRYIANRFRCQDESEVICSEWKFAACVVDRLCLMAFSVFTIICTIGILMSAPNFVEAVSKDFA

O=C(Nc1cc(Cl)ccc1O)Nc1cc(C(F)(F)F)ccc1Cl [NS1738]
EC50: 6.7 ± 1.8 µM
